Results from patent US9770481B2, “Inhibitors of NOX1” (UNIVERSITY OF PITTSBURGH—OF THE COMMONWEALTH SYSTEM OF …, priority 2011, dated 2017).

Legend:
Type in all cases: cell-based
[1] = target: T1, interaction between Nox1 and NoxA1 (Homo sapiens, UniProt Q9Y5S8); assay: FRET between Nox1-YFP and NoxA1-CFP in transfected COS22 cells; conditions: 10 μM, one hour prior to imaging
T1 construct: expressed in transfected cells; host or cells: COS22
T1 sequence (Q9Y5S8 1-564): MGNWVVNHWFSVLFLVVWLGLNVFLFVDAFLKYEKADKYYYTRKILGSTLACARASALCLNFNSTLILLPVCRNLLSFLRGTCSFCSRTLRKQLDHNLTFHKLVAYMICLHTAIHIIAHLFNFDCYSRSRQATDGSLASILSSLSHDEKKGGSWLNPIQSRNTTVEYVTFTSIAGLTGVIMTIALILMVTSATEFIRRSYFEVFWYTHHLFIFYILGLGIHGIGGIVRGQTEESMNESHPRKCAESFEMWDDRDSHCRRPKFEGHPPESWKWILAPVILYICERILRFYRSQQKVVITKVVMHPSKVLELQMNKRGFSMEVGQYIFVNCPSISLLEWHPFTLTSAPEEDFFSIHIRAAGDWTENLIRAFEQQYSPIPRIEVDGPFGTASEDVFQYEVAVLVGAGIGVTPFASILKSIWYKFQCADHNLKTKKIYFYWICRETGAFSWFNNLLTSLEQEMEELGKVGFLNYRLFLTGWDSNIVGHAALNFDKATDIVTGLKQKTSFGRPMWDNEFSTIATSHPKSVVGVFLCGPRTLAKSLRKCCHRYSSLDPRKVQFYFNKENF
T1 sequence (P13498 2-195 partner limits assumed): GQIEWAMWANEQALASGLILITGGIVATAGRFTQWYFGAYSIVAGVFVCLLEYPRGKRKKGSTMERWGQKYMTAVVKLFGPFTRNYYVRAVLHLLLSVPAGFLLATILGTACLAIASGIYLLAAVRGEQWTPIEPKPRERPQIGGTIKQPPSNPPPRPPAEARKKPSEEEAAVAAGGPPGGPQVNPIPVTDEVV
Procedure: FRET (fluorescence resonance energy transfer) studies were performed to study the effect of NoxA1ds on the interaction between Nox1 and NoxA1: In particular, FRET between Nox1-YFP and NoxA1-CFP transfected COS22 cells in the presence or absence of 10 μM NoxA1ds or SCRMB was evaluated. Relative fluorescence of CFP is green while YFP is red. Traces underneath the images indicate fluorescent intensities of CFP and YFP underneath the arrow overlaid on each cell.

[2] = test system: rat aortic smooth muscle cells; assay: Calponin and osteopontin expression in stretched rat aortic smooth muscle cells (Western blot); conditions: 10 μM added every four hours; cyclic stretch 24 hrs
Procedure: The effect of Nox1 inhibition on the expression of certain protein markers of rat aortic smooth muscle cell contractile vs. synthetic phenotypes was evaluated. Cells were subjected to 24 hrs of cyclic stretch (10%, 1 Hz) with 10 μM NoxA1ds or SCRMB control being added every four hours. […] Calponin expression during stretch was rescued by the addition of 10 μM NoxA1ds, yet was unaffected by the addition of 10 μM scrambled peptide (SCRMB). A representative Western blot is shown below the graph (FIG. 9B). Osteopontin (OPN, a marker of the […] phenotype), expression increased after 24 hrs of stretch.

[3] = test system: human pulmonary artery endothelial cells; assay: Hypoxia-induced superoxide production by human pulmonary artery endothelial cells
Procedure: Experiments were also performed to evaluate the effect of NoxA1ds on hypoxia-induced superoxide production by human pulmonary artery endothelial cells.

Nox4 = target: T2, Nox4 (Homo sapiens, UniProt Q9NPH5); assay: H2O2 production by COS cells transfected with Nox4 oxidase (Amplex red); conditions: 100 nM to 10,000 nM
T2 construct: expressed in transfected cells; host or cells: COS22 / COS cells, transient transfection
T2 sequence (Q9NPH5 1-578): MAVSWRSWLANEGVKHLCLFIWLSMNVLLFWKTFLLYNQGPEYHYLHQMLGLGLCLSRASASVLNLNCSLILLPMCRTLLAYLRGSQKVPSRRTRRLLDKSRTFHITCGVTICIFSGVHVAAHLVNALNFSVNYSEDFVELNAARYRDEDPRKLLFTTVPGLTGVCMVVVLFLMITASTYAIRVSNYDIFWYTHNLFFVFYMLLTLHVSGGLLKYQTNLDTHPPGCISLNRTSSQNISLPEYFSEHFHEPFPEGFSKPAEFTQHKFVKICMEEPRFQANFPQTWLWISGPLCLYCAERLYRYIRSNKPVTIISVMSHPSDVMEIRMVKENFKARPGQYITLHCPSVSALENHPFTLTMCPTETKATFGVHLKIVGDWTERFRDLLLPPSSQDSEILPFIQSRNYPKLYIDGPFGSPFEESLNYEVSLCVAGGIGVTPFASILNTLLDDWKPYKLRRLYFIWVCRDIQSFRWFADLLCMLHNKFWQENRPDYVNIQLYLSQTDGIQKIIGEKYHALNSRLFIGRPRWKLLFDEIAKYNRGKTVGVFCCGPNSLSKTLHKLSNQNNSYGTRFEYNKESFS
T2 sequence (P13498 1-195 partner): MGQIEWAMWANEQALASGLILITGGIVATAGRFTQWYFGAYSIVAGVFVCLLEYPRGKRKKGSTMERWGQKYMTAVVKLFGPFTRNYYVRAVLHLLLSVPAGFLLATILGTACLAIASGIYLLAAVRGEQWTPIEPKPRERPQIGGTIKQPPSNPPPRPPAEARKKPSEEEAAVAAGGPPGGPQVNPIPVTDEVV
Procedure: To test whether the inhibitory effect of NoxA1ds is specific to Nox1, the effect of NoxA1ds was tested on cells expressing Nox2, Nox4, and Nox5 as well as on purified xanthine oxidase enzyme. To test the effect on Nox2, production of O2^− was measured by the reduction of cytochrome c by cell lysates from COS cells transiently transfected with the Nox2 oxidase, stimulated with LiDS, and the treated with increasing concentrations of NoxA1ds (from 0.1 nM to 10,000 nM). Similarly, production of H2O2 was measured by Amplex red fluorescence by COS cells transiently transfected with the Nox4 oxidase and treated with increasing concentrations of NoxA1ds (from 100 nM to 10,000 nM). Production of O2^− was also measured by the reduction of cytochrome c by cell lysates from HEK293 cells stably transfected with the Nox5 oxidase stimulated with Ca^2+, and treated with increasing concentrations of NoxA1ds (from 0.1 nM to 10,000 nM). Finally, production of O2^− was measured by Electron Paramagnetic Resonance from pure xanthine oxidase enzyme preparations, stimulated with hypoxanthine and treated with increasing concentrations of NoxA1ds (from 0.1 nM to 10,000 nM).

[4] = test system: rat aortic smooth muscle cells; assay: Stretch-induced migration of rat aortic smooth muscle cells (wound closure); conditions: 10 μM added every four hours; cyclic stretch 24 hrs
Procedure: The effect on NoxA1ds on stretch-induced migration of rat aortic smooth muscle cells was studied. Cell monolayer cultures with an introduced gap (“wound”) were subjected to 24 hrs of cyclic stretch (10%, 1 Hz) with 10 μM NoxA1ds or SCRMB control being added every four hours. Cell migration may be assessed as the distance the wound has closed, where greater […] corresponds to greater migration. Cell migration increased as a result of cyclic stretch.

Question: What does the source list for “H-EPVDALGKAKV-NH2 [NoxA1ds, [NH3^+]-EPVDALGKAKV-[CONH2]]”?
Answer: CFP fluorescence after photobleaching of Nox1-YFP (FRET) [1]: did not result in a concomitant increase in CFP fluorescence; Calponin expression during stretch [2]: rescued; Osteopontin (OPN) expression during stretch [2]: returned to levels observed in the absence of stretch; O2- production under hypoxia ([3]; hypoxia 1.0% O2, 24 hrs): returned to the amount observed under normoxia; O2- production under normoxic conditions ([3]; normoxia): negligible effect; Inhibitory effect on Nox4 H2O2 production (Nox4): did not exhibit a significant inhibitory effect; Stretch-induced cell migration (wound closure) [4]: reduced migration to levels observed in non-stretched cells
